For series [1] the following is noted: death can occur in 2-3 minutes; cited from earlier work.
For series [2] the following is noted: cited from earlier work.
Series [3] can be described thus: Corrosion test of acid compositions with corrosion inhibition package on 1018 steel coupons. The settings on record: Table 3, 1.2:1 HCl-Urea, 50% dilution in seawater, 90° C., 6 hours, 1% package + 1% CI-1A. The text has this: Various types of steel alloy coupons were subjected to corrosion testing in the presence of conventional, synthetic and modified acid compositions using corrosion inhibitor components according to preferred embodiments of the present invention at various temperatures. Coupons of various grades of steel alloys (indicated in each table) were exposed to the various listed compositions for various periods of time at varying temperatures.
The following corrosion testing outlined in the tables below for a number of different corrosion inhibition packages according to the present invention in the presence of a synthetic or modified acid composition was carried out diluted with saline water (in most cases) at various temperatures for various durations of exposure. Depending on the intended use/application of an acidic fluid composition comprising a corrosion inhibitor package according to the present invention, a desirable result would be one where the lb/ft^2 corrosion number is at or below 0.05. A more desirable would be one where the corrosion (in lb/ft^2) is at or below 0.02. Generally, seawater has the deleterious effect of potentiating corrosion, consequently corrosion inhibition packages which follow the guidelines or regulations for offshore oil production are highly desirable for operators. Where applicable the fluids (acid compositions) were diluted as indicated.

The conditions of series [4]: cited from earlier work. This is another data set of the same source.

As for `Cl` [Hydrogen chloride gas, Hydrogen chloride], the “level at which death can occur” value in series [1] is given as 1300-2000 ppm.
As for `CCCCCCOCCOCCOCCO` [NOVEL® 6-3 Ethoxylate, CH3 (CH2)4CH2(OCH2CH2)3OH], in series [2], the solubility in hydrocarbons entry was “soluble” and the solubility in water result is given as “sparingly soluble”.
Regarding `O=CC=Cc1ccccc1` [ZA, Cinnamaldehyde], in series [3], the “Corrosion lb/ft2” value amounted to 0.008 lb/ft2, the “Corrosion rate Mils/yr” value is given as 296.053 Mils/yr, the Corrosion rate mm/year was 7.52 mm/year and the Wt loss is reported as 0.168 g.
As for `C#CCO` [propargyl alcohol], the “performance on Cr-13 alloys (pitting)” value in series [4] was “poor performance”.

The values above are taken from patent US11891703B2, “Corrosion inhibition package” (DORF KETAL CHEMICALS FZE, priority 2017, dated 2024).
